In ChEMBL document CHEMBL5236660, “Design, synthesis, and biological evaluation of quinoxalinone derivatives as potent BRD4 inhibitors” (Bioorg Med Chem, 2023):

How the values were obtained:
Format in all cases: functional
HepG2 [1] = experiment: Inhibition of colony formation in human HepG2 cells at 10 uM incubated for 8 days with drug replacement every 2 days by crystal violet staining based imaging analysis; settings: HepG2, 192 h, time 8 day
HepG2 [2] = experiment: Induction of cell cycle arrest in human HepG2 cells assessed as accumulation at G0/G1 phase at 0.625 uM incubated for 24 hrs by flow cytometry (Rvb= 46.5%)
HepG2 [3] = experiment: Induction of cell cycle arrest in human HepG2 cells assessed as accumulation at G2/M phase at 1.25 uM incubated for 24 hrs by flow cytometry (Rvb= 14.05%)
HepG2 [4] = experiment: Induction of cell cycle arrest in human HepG2 cells assessed as accumulation at G0/G1 phase at 2.5 uM incubated for 24 hrs by flow cytometry (Rvb= 46.5%)
HepG2 [5] = experiment: Induction of cell cycle arrest in human HepG2 cells assessed as accumulation at G2/M phase at 5 uM incubated for 24 hrs by flow cytometry (Rvb= 14.05%)
HepG2 [6] = experiment: Induction of apoptosis in human HepG2 cells assessed as necrotic cells at 2.5 uM incubated for 24 hrs by Annexin-V/PI staining based flow cytometry (Rvb=0.85%)
HepG2 [7] = experiment: Induction of apoptosis in human HepG2 cells assessed as late apoptotic cells at 0.625 uM incubated for 24 hrs by Annexin-V/PI staining based flow cytometry (Rvb=0.66%)
HepG2 [8] = experiment: Induction of apoptosis in human HepG2 cells assessed as late apoptotic cells at 1.25 uM incubated for 24 hrs by Annexin-V/PI staining based flow cytometry (Rvb=0.66%)
HepG2 [9] = experiment: Induction of apoptosis in human HepG2 cells assessed as late apoptotic cells at 2.5 uM incubated for 24 hrs by Annexin-V/PI staining based flow cytometry (Rvb=0.66%)
HepG2 [10] = experiment: Induction of apoptosis in human HepG2 cells assessed as total apoptotic cells at 1.25 uM incubated for 24 hrs by Annexin-V/PI staining based flow cytometry (Rvb=5.14%)

SMILES: CC(=O)Nc1ccc(Oc2ccc(F)cc2F)c(-c2ccc3[nH]c(=O)c(C)nc3c2)c1
- inhibition at 10 µM (HepG2 [1]): 80%
- Activity (HepG2 [2]): 46.1%
- Activity (HepG2 [3]): 22.6%
- Activity (HepG2 [4]): 53.3%
- Activity (HepG2 [5]): 21%
- Activity (HepG2 [6]): 0.9%
- Activity (HepG2 [7]): 0.96%
- Activity (HepG2 [8]): 1.37%
- Activity (HepG2 [9]): 1.39%
- Activity (HepG2 [10]): 7.66%
